Experimental data as given in US20230202989A1, “COMPOUNDS” (JANSSEN PHARMACEUTICA NV, priority 2020, published 2023).
pEC50, pIC50: −log10 of the molar value. Read-outs that look alike come from different tables or passages of the source.

Tests used:
[1] = system: IL-1β; assay: PBMC assay: inhibition of IL-1β release after LPS stimulation (MSD); format: cell-based; details: human PBMCs, 100 ng/ml LPS for 6 hrs, MSD, 96 well plates, read-out: IL1β IC50
Procedure: Peripheral venous blood s collected from health individuals and human peripheral blood mononuclear cells (PBMCs) ere isolated from blood by Ficoll Histopaque (Sigma-Aldrich, A0561) density gradient centrifugation. After isolation, PBMCs were stored in liquid nitrogen for later use. Upon thawing, PBMC cell viability was determined in growth medium (RPMI media supplemented with 10% fetal bovine serum, 1% Pen-Strep and 1% L-glutamine). […] PBMCs were added at a density of 7.5×10^4 cells per well and incubated for 30 min in a 5% CO2 incubator at 37° C. LPS stimulation was performed by addition of 100 ng/ml LPS (final concentration, Invivogen, tlrl-smlps) for 6 hrs followed by collection of cellular supernatant and the analysis of IL-1β (μM) and TNF cytokines levels (μM) via MSD technology according to manufacturers' guidelines (MSD, K151A0H).
(§1) The IC50 values (for IL-1β) and EC50 values (TNF) were obtained on compounds of the invention/examples, and are depicted in the following table: […]

[2] = system: TNF; assay: PBMC assay: TNF cytokine levels after LPS stimulation (MSD); format: cell-based; details: human PBMCs, 100 ng/ml LPS for 6 hrs
Procedure: Peripheral venous blood s collected from health individuals and human peripheral blood mononuclear cells (PBMCs) ere isolated from blood by Ficoll Histopaque (Sigma-Aldrich, A0561) density gradient centrifugation. After isolation, PBMCs were stored in liquid nitrogen for later use. Upon thawing, PBMC cell viability was determined in growth medium (RPMI media supplemented with 10% fetal bovine serum, 1% Pen-Strep and 1% L-glutamine). Compounds were spotted in a 1:3 serial dilution in DMSO and diluted to the final concentration in 30 μl medium in 96 well plates (Falcon, 353072). PBMCs were added at a density of 7.5×10^4 cells per well and incubated for 30 min in a 5% CO2 incubator at 37° C. LPS stimulation was performed by addition of 100 ng/ml LPS (final concentration, Invivogen, tlrl-smlps) for 6 hrs followed by collection of cellular supernatant and the analysis of IL-1β (μM) and TNF cytokines levels (μM) via MSD technology according to manufacturers' guidelines (MSD, K151A0H).
as §1

| Structure (SMILES) | pIC50 [1] | pEC50 ([2]; Homo sapiens, PBMC, 6 h) | pIC50 ([1]; Homo sapiens, PBMC, 6 h) | pEC50 [2] |
| --- | --- | --- | --- | --- |
| CC(C)c1nn(CC(=O)N[C@H]2C[C@](O)(C(F)(F)F)C2)c(=O)c2ccc(C(F)(F)F)cc12 [Final Cpd X35] | 6.52 | < 4.70 | – | – |
| C[C@]1(O)C[C@@H](NC(=O)Cn2nc(C(F)F)c3cc(C(F)(F)F)ccc3c2=O)C1 [Final Cpd X36] | – | < 4.70 | 6.52 | – |
| CCN1C[C@H](F)C[C@@H](NC(=O)Cn2nc(C(C)C)c3cc(C(F)(F)F)ccc3c2=O)C1 [Final Cpd X37] | – | < 4.70 | 6.50 | – |
| CC(C)c1nn(CC(=O)Nc2ccc3ncnn3c2)c(=O)c2ccc(C(F)(F)F)cc12 [Final Cpd X38] | – | < 4.70 | 6.48 | – |
| CC(C)c1nn(CC(=O)Nc2cc(C(F)F)[nH]n2)c(=O)c2ccc(C(F)(F)F)cc12 [Final Cpd X39] | – | 4.90 | 6.46 | – |
| CC(C)c1nn(CC(=O)Nc2ccc(=O)n(CCN(C)C)n2)c(=O)c2ccc(C(F)(F)F)cc12 [Final Cpd X40] | – | < 4.70 | 6.46 | – |
| CC(C)c1nn(CC(=O)N[C@H]2CC[C@@H](O)CC2)c(=O)c2ccc(C(F)(F)F)cc12 [Final Cpd X42] | – | 4.82 | 6.45 | – |
| CC(C)c1nn(CC(=O)N[C@H]2CC[C@H](O)CC2)c(=O)c2ccc(C(F)(F)F)cc12 [Final Cpd X44] | – | < 4.70 | 6.43 | – |
| O=C(Cn1nc(C2CC2)c2cc(C(F)(F)F)ccc2c1=O)N[C@H]1CN(C2CC2)CC[C@H]1O [Final Cpd X45] | – | < 4.70 | 6.42 | – |
| CC(C)c1nn(CC(=O)N[C@H]2CC[C@@](C)(O)CC2)c(=O)c2ccc(C(F)(F)F)cc12 [Final Cpd X46] | – | < 4.70 | 6.41 | – |
| CC(C)c1nn(CC(=O)Nc2ccc3ncn(C)c3n2)c(=O)c2ccc(C(F)(F)F)cc12 [Final Cpd X47, 2-(4-isopropyl-1-oxo-6-(trifluoromethyl)phthalazin-2(1H)-yl)-N-(3-methyl-3H-imidazo[4,5-b]pyridin-5-yl)acetamide] | – | < 4.70 | 6.40 | – |
| Cc1ncc2ccc(NC(=O)Cn3nc(C(C)C)c4cc(C(F)(F)F)ccc4c3=O)cn12 [Final Cpd X48] | – | < 4.70 | 6.40 | – |
| CC(C)c1nn(CC(=O)Nc2ccc3nnn(C)c3c2)c(=O)c2ccc(C(F)(F)F)cc12 [Final Cpd X49] | – | 5.01 | 6.40 | – |
| O=C(Cn1nc(C(F)F)c2cc(C(F)(F)F)ccc2c1=O)Nc1ccncn1 [Final Cpd X50] | – | < 4.70 | 6.36 | – |
| Cc1cc(NC(=O)Cn2nc(C(C)C)c3cc(C(F)(F)F)ccc3c2=O)nn(C)c1=O [Final Cpd X51] | – | < 4.70 | 6.36 | – |
| CC(C)c1nn(CC(=O)Nc2cc(Br)c3nncn3c2)c(=O)c2ccc(C(F)(F)F)cc12 [Final Cpd X52, N-(8-Bromo-[1,2,4]triazolo[4,3-a]pyridin-6-yl)-2-(4-isopropyl-1-oxo-6-(trifluoromethyl)phthalazin-2(1H)-yl)acetamide] | – | < 4.70 | 6.35 | – |
| Cc1cn2nc(NC(=O)Cn3nc(C(C)C)c4cc(C(F)(F)F)ccc4c3=O)ccc2n1 [Final Cpd X53] | – | < 4.70 | 6.35 | – |
| CC(C)c1nn(CC(=O)Nc2ccn3ccnc3c2)c(=O)c2ccc(C(F)(F)F)cc12 [Final Cpd X54] | – | < 4.70 | 6.35 | – |
| CC(C)c1nn(CC(=O)N[C@H]2CCc3nncn3C2)c(=O)c2ccc(C(F)(F)F)cc12 [Final Cpd X55] | – | < 4.70 | 6.34 | – |
| CC(C)c1nn(CC(=O)N[C@H]2CC[C@@H]2O)c(=O)c2ccc(C(F)(F)F)cc12 [Final Cpd X56] | – | < 4.70 | 6.31 | – |
| Cc1nc2ccc(NC(=O)Cn3nc(C(C)C)c4cc(C(F)(F)F)ccc4c3=O)cn2n1 [Final Cpd X57] | – | < 4.70 | 6.26 | – |

| Structure (SMILES) | pIC50 [1] | pEC50 ([2]; Homo sapiens, PBMC, 6 h) | pIC50 ([1]; Homo sapiens, PBMC, 6 h) | pEC50 [2] |
| --- | --- | --- | --- | --- |
| CC(=O)c1nn(CC(=O)Nc2ccc3nncn3c2)c(=O)c2ccc(C(F)(F)F)cc12 [Final Cpd X58] | – | < 4.70 | 6.26 | – |
| CC(c1nn(CC(=O)Nc2ccc3nncn3c2)c(=O)c2ccc(C(F)(F)F)cc12)C(F)(F)F (stereo not drawn) [Final Cpd X59] | – | < 4.70 | 6.25 | – |
| CC(C)c1nn(CC(=O)N[C@H]2CCCN3CCC[C@@H]23)c(=O)c2ccc(C(F)(F)F)cc12 [Final Cpd X60] | – | < 4.70 | 6.23 | – |
| O=C(Cn1nc(C(O)C(F)(F)F)c2cc(C(F)(F)F)ccc2c1=O)Nc1ccc2nncn2c1 (stereo not drawn) [Final Cpd X61] | – | < 4.70 | 6.23 | – |
| COCCn1nc(NC(=O)Cn2nc(C(C)C)c3cc(C(F)(F)F)ccc3c2=O)ccc1=O [Final Cpd X62] | – | < 4.70 | 6.23 | – |
| CC(C)c1nn(CC(=O)Nc2ccc3nnc(Cl)n3n2)c(=O)c2ccc(C(F)(F)F)cc12 [Final Cpd X63] | – | < 4.70 | 6.22 | – |
| CC(C)c1nn(CC(=O)Nc2ccc3nc(C(F)(F)F)cn3c2)c(=O)c2ccc(C(F)(F)F)cc12 [Final Cpd X64, 2-(4-isopropyl-1-oxo-6-(trifluoromethyl)phthalazin-2(1H)-yl)-N-(2-(trifluoromethyl)imidazo[1,2-a]pyridin-6-yl)acetamide] | – | < 4.70 | 6.18 | – |
| CC(C)c1nn(CC(=O)N[C@H]2C[C@](O)(C(F)(F)F)C2)c(=O)c2ccc(C(F)(F)F)cc12 [Final Cpd X65] | 6.18 | – | – | < 4.70 |
| CC(O)c1nn(CC(=O)Nc2ccc3nncn3c2)c(=O)c2ccc(C(F)(F)F)cc12 (stereo not drawn) [Final Cpd X66] | – | < 4.70 | 6.17 | – |
| CC(C)c1nn(CC(=O)N[C@H]2C[C@@H](O)C2)c(=O)c2ccc(C(F)(F)F)cc12 [Final Cpd X67] | – | < 4.70 | 6.17 | – |
| Cc1nnc2n1CC(NC(=O)Cn1nc(C(C)C)c3cc(C(F)(F)F)ccc3c1=O)CC2 (stereo not drawn) [Final Cpd X68] | – | < 4.70 | 6.14 | – |
| CC(C)c1nn(CC(=O)Nc2ncnc3c2ncn3C)c(=O)c2ccc(C(F)(F)F)cc12 [Final Cpd X69] | – | < 4.70 | 6.13 | – |
| CC(C)c1nn(CC(=O)N[C@H]2CN(CC[C@@H](C)O)CC[C@H]2O)c(=O)c2ccc(C(F)(F)F)cc12 [Final Cpd X70] | – | < 4.70 | 6.13 | – |
| CC(C)c1nn(CC(=O)Nc2ccc3nncn3c2)c(=O)c2c(F)cc(C(F)(F)F)cc12 [Final Cpd X71] | – | < 4.70 | 6.12 | – |
| CC(C)c1nn(CC(=O)Nc2cnc3nccn3c2)c(=O)c2ccc(C(F)(F)F)cc12 [Final Cpd X73] | – | < 4.70 | 6.10 | – |
| Cc1c(NC(=O)Cn2nc(C(C)C)c3cc(C(F)(F)F)ccc3c2=O)ccc2nccn12 [Final Cpd X74] | – | < 4.70 | 6.09 | – |
| CC(O)c1nn(CC(=O)N[C@H]2C[C@@](C)(O)C2)c(=O)c2ccc(C(F)(F)F)cc12 (stereo partly drawn) [Final Cpd X75] | – | < 4.70 | 6.09 | – |
| O=C(Cn1nc(CCC(F)(F)F)c2cc(C(F)(F)F)ccc2c1=O)Nc1ccc2nncn2c1 [Final Cpd X76] | 6.08 | – | – | < 4.70 |
| CC(C)c1nn(CC(=O)NC2CC(C(F)(F)F)C2)c(=O)c2ccc(C(F)(F)F)cc12 (stereo not drawn) [Final Cpd X77] | – | < 4.70 | 6.08 | – |
| CC(C)c1nn(CC(=O)N[C@H]2CC[C@](C)(O)CC2)c(=O)c2ccc(C(F)(F)F)cc12 [Final Cpd X78] | – | < 4.70 | 6.06 | – |
| Cc1cnc2ccc(NC(=O)Cn3nc(C(C)C)c4cc(C(F)(F)F)ccc4c3=O)cn12 [Final Cpd X79] | – | < 4.70 | 6.06 | – |
